The source of these data is patent US8809328B2, “Imidazole derivative” (National University Corporation Shizuoka University, priority 2011, dated 2014).

Assay [1] relates to rice (Nipponbare) (Oryza sativa L. cv. Nipponbare). The assay can be described thus: Influence of AHX or AOH on rice seedlings in test tube culture fluid (Example 6). The assay is classed as in vivo. Conditions: 50, 200 or 1000 μM in culture fluid, 28° C., one week, FIG. 4. The protocol: Sterilized seeds of rice (Nipponbare) (Oryza sativa L. cv. Nipponbare) were allowed to sprout at 28° C. in three days. The sprouted seeds (four seeds per test tube) were cultivated in a test tube, in which a control culture fluid or a culture fluid to which AHX or AOH was added to different concentrations and was placed, at 28° C. for a week. AOH that was produced according to the method of Example 5 was used. The control culture fluid comprises 0.5 mM of NH4NO3, 0.3 mM of Na2HPO4, 0.15 mM of K2SO4, 0.2 mM of MgCl2, 0.1 mM of CaCl2, 23 μM of Fe-ethylenediaminetetraacetic acid (Fe-EDTA), 25 μM of H3BO3, 4.5 μM of MnSO4, 0.15 μM of CuSO4, 0.35 μM of ZnSO4, and 0.05 μM of Na2MoO4. As for the culture fluids containing AHX or AOH, AHX or AOH is added to the above described control culture fluids such that the final concentration becomes 50 μM, 200 μM or 1000 μM. The culture fluid was replaced with new culture fluid every other day. After cultivation, the length of shoots and roots was measured.

Assay [2] shares this test system. The assay can be described thus: Influence of AOH and 3-methyl-AOH on rice seedlings in test tube culture fluid (Example 12). The assay is classed as in vivo. The conditions noted are these: 0.2 mM in culture fluid, 28° C., one week, FIG. 8. The protocol:
Sterilized seeds of rice (Nipponbare) (Oryza sativa L. cv. Nipponbare) were allowed to sprout at 28° C. in three days. The sprouted seeds (four seeds per test tube) were cultivated in a test tube, in which a control culture fluid, a culture fluid to which 0.2 mM of AOH was added, or a culture fluid to which 0.2 mM of 3-methyl-AOH was added and was placed, at 28° C. for a week. The control culture fluid comprises 0.5 mM of NH4NO3, 0.3 mM of Na2HPO4, 0.15 mM of K2SO4, 0.2 mM of MgCl2, 0.1 mM of CaCl2, 23 μM of Fe-ethylenediaminetetraacetic acid (Fe-EDTA), 25 μM of H3BO3, 4.5 μM of MnSO4, 0.15 μM of CuSO4, 0.35 μM of ZnSO4, and 0.05 μM of Na2MoO4. The culture fluid was replaced with new culture fluid every other day. After cultivation, the length of shoots and roots was measured. […] (In FIG. 8, “*” indicates P value <0.05, and “**” indicates P value <0.01. n=16.). In contrast, 3-methyl-AOH gave no influence on extension of the shoots.

Molecules are shown by their SMILES.

With `O=c1[nH]c2nn[nH]c(=O)c2[nH]1` [AOH, 3H-imidazo[4,5-d][1,2,3]triazin-4,6(5H,7H)-dione], the “Extension of shoots and roots” value in assay [1] is “promoted extension of shoots and roots concentration-dependently”. Besides, the Extension of roots entry in assay [2] is listed as “had extension activity for roots”.
